Test results published in patent US7563788B2, “Substituted Imidazo[1,2-a]pyridines as Antibacterial Agents” (Pfizer Inc., priority 2004, dated 2009).
Values after ≈ are worked out from the molar mass of the structure shown.

Key:
[1] = tested on: Neisseria gonorrhoeae, GC525 (NG-2888); assay: In-vitro antibacterial activity, microbroth dilution MIC susceptibility testing; type: cell-based; conditions: gonococcal broth, 20-24 hours at 35° C., lowest concentration preventing visible growth
Protocol: The in-vitro antibacterial activity of selected compounds was determined against a stain of Neisseria gonorrhoeae, GC525 (NG-2888), which is described by Rouquette-Loughlin et al, in Journal of Bacteriology, February 2003, p. 1101-1106, at p. 1103. In general, minimum inhibitory concentration (MIC) susceptibility testing followed procedures recommended by the National Committee for Clinical Laboratory Standards (NCCLS^1-2) or followed the descriptions described below:
Neisseria gonorrhoeae strains were grown on Chocolate Agar II plates (BBL—Becton Dickinson Microbiology Systems, Cockeysville, Md.) and incubated at 35° C. in a humidified 5% CO2 incubator (Forma Scientific, Marietta Ohio). For microbroth dilution MIC testing, N. gonorrhoeae were tested in gonococcal broth (GCB):
Bacterial culture identifications were confirmed by standard microbiological methods.^4 N. gonorrhoeae strains were streaked onto appropriate agar plates for visualization of purity and expected colony morphology. Gram stains were also utilized.
Bacterial stock cultures are stored as frozen suspensions at −70° C. N. gonorrhoeae cultures are suspended in inactivated Horse Serum (Colorado Serum Company, Denver, Colo.) containing 7.5% glucose prior to snap freezing in a dry ice/ethanol bath.
Frozen stock cultures were used as the initial source of organisms for performing microbroth dilution MIC testing. Stock cultures were passed on their respective growth medium at least one growth cycle (18-24 hours) prior to their use. Bacterial culture suspensions were prepared directly from Chocolate Agar II plates into 10 mL cation-adjusted Mueller-Hinton Broth (CAMHB, BBL, # BB215069). Before use, cultures were adjusted to an optical density value of […] on a Perkin-Elmer Lambda EZ150 Spectrophotometer (Wellesley, Mass.) set at a wavelength of 600 nm. Random cultures were plated for validation of actual colony counts. The adjusted cultures were diluted 400-fold (0.25 mL inoculum+100 mL GCB) into gonococcal broth producing a starting inoculum of approximately 5×10^5 cfu/mL. These cultures were inoculated into test plates (100 uL/well) using a Biomek® FX workstation (Beckman Coulter Inc., Fullerton, Calif.). The inoculated plates were placed in stacks of no more than 4 and covered with an empty plate. Plates were incubated for 20-24 hours at 35° C. in a humidified CO2 incubator.
Drug stock solutions (2 mg/mL in DMSO) were prepared on the day of testing. Drugs were weight corrected for assay content where necessary.
Microbroth dilution stock plates were prepared in two dilution series, 64-0.06 ug drug/mL and 1-0.001 ug drug/mL. For the high concentration series, 200 uL of stock solution (2 mg/mL) was added to duplicate rows of a 96-well plate. This was used as the first well in the dilution series. Serial two-fold decremental dilutions were made using a BioMek FX robot (Beckman Coulter Inc., Fullerton, Calif.) with 10 of the remaining 11 wells, each of which contained 100 uL of the appropriate solvent/diluent. Row 12 contained solvent/diluent only and served as the control. For tube one of the low concentration series, 200 uL of a 31.25 ug/mL stock was added to duplicate rows of a 96-well plate. Serial two-fold dilutions were made as described above.
Daughter plates were spotted (3.2 uL/well) from the stock plates listed above using the BioMek FX robot and were inoculated with organism (100 uL/well) as described previously.
After incubation, the degree of growth in each well was read visually with the aid of a Test Reading Mirror (Dynatech Lab 220-16, Dynex Technologies, Chantilly, Va.). 96-well test plates are read in a darkened room with a single light shining from above. The MIC is the lowest concentration of drug that prevents macroscopically visible growth under the conditions of the test. Each drug dilution series was tested in duplicate; identical results are not always obtained. If MIC values in duplicate tests differ by 1 well (two-fold), the […] value is reported. […]

| melting point | MIC [1] [µg/mL] | Structure (SMILES) |
| --- | --- | --- |
| 259 to 263 °C (dec.) | 16 (≈ 49.2 µM) | CCNC(=O)Nc1cn2ccc(-c3cnc(N(C)C)nc3)cc2n1 [Example 2B, 1-[7-(2-Dimethylamino-pyrimidin-5-yl)-imidazo[1,2-a]pyridin-2-yl]-3-ethyl-urea] |
| 270 to 280 °C (dec.) | > 64 | CCOC(=O)Nc1cn2ccc(-c3cnc(N(C)C)nc3)cc2n1 [Example 2A, [7-(2-Dimethylamino-pyrimidin-5-yl)-imidazo[1,2-a]pyridin-2-yl]-carbamic Acid Ethyl Ester] |
| > 300 °C | 12.7 (≈ 40.7 µM) | CCNC(=O)Nc1cn2ccc(-c3cnc(OC)nc3)cc2n1 [Example 4, 1-Ethyl-3-[7-(2-methoxy-pyrimidin-5-yl)-imidazo[1,2-a]pyridin-2-yl]-urea] |
| 292 to 295 °C (dec.) | 32 (≈ 118 µM) | CCNC(=O)Nc1cn2ccc(-c3ccn[nH]3)cc2n1 [Example 38, 1-Ethyl-3-[7-(2H-pyrazol-3-yl)-imidazo[1,2-a]pyridin-2-yl]-urea] |
| 222 to 225 °C (dec.) | 16 (≈ 51.4 µM) | CCNC(=O)Nc1cn2ccc(-c3ccc(OC)nc3)cc2n1 [Example 3B, 1-Ethyl-3-[7-(6-methoxy-pyridin-3-yl)-imidazo[1,2-a]pyridin-2-yl]-urea] |
| – | 64 (≈ 217 µM) | O=C(Nc1cn2ccc(-c3cncnc3)cc2n1)NC1CC1 [Example 27, 1-Cyclopropyl-3-(7-pyrimidin-5-yl-imidazo[1,2-a]pyridin-2-yl)-urea] |
| – | 2 (≈ 5.04 µM) | CCNC(=O)Nc1cn2c(C(=O)NCC)cc(-c3cnc(N(C)C)nc3)cc2n1 [Example 50, 7-(2-Dimethylamino-pyrimidin-5-yl)-2-(3-ethyl-ureido)-imidazo[1,2-a]pyridine-5-carboxylic Acid Ethylamide] |
| – | 64 (≈ 224 µM) | CCNC(=O)Nc1cn2ccc(-c3nnc(C)o3)cc2n1 [Example 36, 1-Ethyl-3-[7-(5-methyl-[1,3,4]oxadiazol-2-yl)-imidazo[1,2-a]pyridin-2-yl]-urea] |
| – | 8 (≈ 22.2 µM) | CCNC(=O)Nc1cn2ccc(-c3cnn(Cc4ccccc4)c3)cc2n1 [Example 10, 1-[7-(1-Benzyl-1H-pyrazol-4-yl)-imidazo[1,2-a]pyridin-2-yl]-3-ethyl-urea] |
| – | 64 (≈ 216 µM) | CCNC(=O)Nc1cn2ccc(-c3ccnc(N)c3)cc2n1 [Example 42, 1-[7-(2-Amino-pyridin-4-yl)-imidazo[1,2-a]pyridin-2-yl]-3-ethyl-urea] |
| 273 to 279 °C (dec.) | > 64 | CCOC(=O)Nc1cn2ccc(-c3ccc(OC)nc3)cc2n1 [Example 3A, [7-(6-Methoxy-pyridin-3-yl)-imidazo[1,2-a]pyridin-2-yl]-carbamic Acid Ethyl Ester] |
| – | > 64 | CCNC(=O)Nc1cn2ccc(-c3noc(C)n3)cc2n1 [Example 22, 1-Ethyl-3-[7-(5-methyl-[1,2,4]oxadiazol-3-yl)-imidazo[1,2-a]pyridin-2-yl]-urea] |
| – | 32 (≈ 104 µM) | O=C(NCC1CC1)Nc1cn2ccc(-c3cncnc3)cc2n1 [Example 28, 1-Cyclopropylmethyl-3-(7-pyrimidin-5-yl-imidazo[1,2-a]pyridin-2-yl)-urea] |
| – | 64 (≈ 215 µM) | CCNC(=O)Nc1cn2ccc(-c3c(C)n[nH]c3C)cc2n1 [Example 25, 1-[7-(3,5-Dimethyl-1H-pyrazol-4-yl)-imidazo[1,2-a]pyridin-2-yl]-3-ethyl-urea] |
| – | 16 (≈ 55.5 µM) | CCNC(=O)Nc1cn2ccc(-c3csnn3)cc2n1 [Example 39, 1-Ethyl-3-(7-[1,2,3]thiadiazol-4-yl-imidazo[1,2-a]pyridin-2-yl)-urea] |
| – | > 64 | CCNC(=O)Nc1cn2ccc(-c3noc(C(C)C)n3)cc2n1 [Example 40, 1-Ethyl-3-[7-(5-isopropyl-[1,2,4]oxadiazol-3-yl)-imidazo[1,2-a]pyridin-2-yl]-urea] |
